Where a name gives a salt, the structure may show the parent alone. Read-outs that look alike come from different tables or passages of the source.
What was measured:
anesthetized rabbits = experiment: clofilium-induced Torsades de Pointes in methoxamine-treated anesthetized rabbits; type: in vivo, rabbit
Experimental: Spontaneous TdP was induced with methoxamine (α1-adrenoceptor agonist) followed by clofilium (Ikr blocker) in anesthetized rabbits as previously described by Carlsson et al (J. Cardiovas. Pharmacol 1990; 16:276-285). RAN was given via intravenous (iv) infusion 10 min prior to clofilium. Arterial pressure (BP), lead II ECG and endocardial Monophasic Action Potential (MAP) were recorded. QT interval was corrected for heart rate by using a formula developed for rabbits: QTc=QT−0.175*(RR−300).

female rabbit hearts = experiment: female rabbit isolated hearts paced at 1 Hz: monophasic action potentials and 12-lead ECG
[1] = test system: inward rectifier K+ current (IKI); conditions: cited from earlier work
IKr = conditions: cited from earlier work
[2] = test system: slow component of the delayed rectifier K+ current; conditions: at 30 μM; cited from earlier work
[3] = test system: rabbit and guinea-pig isolated hearts and canine ventricular myocytes; conditions: cited from earlier work
[4] = test system: transient outward K+ current (Ito); conditions: cited from earlier work
[5] = cited from earlier work
[6] = target: HERG channels expressed in HEK293 cells (Homo sapiens, UniProt Q12809); conditions: for time constant for development of block of IHERG: human
Chain of HERG channels expressed in HEK293 cells (Q12809 whole entry): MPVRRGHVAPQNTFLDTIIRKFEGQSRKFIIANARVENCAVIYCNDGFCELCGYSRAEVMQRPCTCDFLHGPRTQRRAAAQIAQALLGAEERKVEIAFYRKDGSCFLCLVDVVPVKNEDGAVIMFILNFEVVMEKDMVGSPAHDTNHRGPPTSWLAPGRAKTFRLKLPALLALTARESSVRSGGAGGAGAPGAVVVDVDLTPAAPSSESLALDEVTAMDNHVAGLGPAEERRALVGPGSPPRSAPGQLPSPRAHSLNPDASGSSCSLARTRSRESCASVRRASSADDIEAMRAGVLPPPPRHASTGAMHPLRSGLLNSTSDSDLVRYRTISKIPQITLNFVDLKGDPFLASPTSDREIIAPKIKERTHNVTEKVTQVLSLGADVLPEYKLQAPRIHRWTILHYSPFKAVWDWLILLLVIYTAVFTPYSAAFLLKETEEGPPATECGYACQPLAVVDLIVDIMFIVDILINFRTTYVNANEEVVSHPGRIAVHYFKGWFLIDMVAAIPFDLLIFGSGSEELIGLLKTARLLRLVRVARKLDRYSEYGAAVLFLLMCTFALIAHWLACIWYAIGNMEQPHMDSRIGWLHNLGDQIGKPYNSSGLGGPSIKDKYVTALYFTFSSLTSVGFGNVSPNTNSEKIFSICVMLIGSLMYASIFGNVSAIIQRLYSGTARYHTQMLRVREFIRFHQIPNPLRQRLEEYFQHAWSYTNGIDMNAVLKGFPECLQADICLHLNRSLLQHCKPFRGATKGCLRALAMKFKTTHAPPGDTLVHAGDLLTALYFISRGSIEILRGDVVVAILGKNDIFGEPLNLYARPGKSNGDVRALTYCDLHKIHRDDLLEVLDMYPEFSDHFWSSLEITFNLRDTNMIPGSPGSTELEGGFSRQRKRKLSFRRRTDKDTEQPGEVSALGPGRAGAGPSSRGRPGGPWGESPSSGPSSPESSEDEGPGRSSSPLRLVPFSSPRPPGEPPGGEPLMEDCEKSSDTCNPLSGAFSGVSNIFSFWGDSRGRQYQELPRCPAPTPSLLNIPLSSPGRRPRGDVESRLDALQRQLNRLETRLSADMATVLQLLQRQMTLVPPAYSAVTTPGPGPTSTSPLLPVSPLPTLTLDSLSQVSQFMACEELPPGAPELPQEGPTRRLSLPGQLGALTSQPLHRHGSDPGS
Description: Human-ether-a-go-go related gene (HERG) encodes the cardiac rapidly activating delayed rectifier K^+ current (IKr). Inhibition of HERG K^+ current (IHERG) is a mechanism for drug-induced long QT syndrome.

[7] = ranolazine 10 μM in the presence of 60 nM E-4031, n=9, p<0.01
[8] = iv infusion 10 min prior to clofilium, n=6

CCCCCCC[N+](CC)(CC)CCCCc1ccc(Cl)cc1.[Br-] [Clofilium, 4-chloro-N,N-diethyl-N-heptyl benzenebutanaminium bromide]
rabbits with TdP (anesthetized rabbits; clofilium after methoxamine, rabbits with TdP/rabbits): 6/6 | MAPD90 after clofilium (anesthetized rabbits; from 123±6 ms, n=6, P<0.05): 201 ± 21 ms | QTc after clofilium (anesthetized rabbits; from 130±4 ms, n=6, P<0.05): 200 ± 18 ms

NC1=N[C@H](O)[C@H]2[C@H]3O[C@]4(O)O[C@@H]([C@@H](O)[C@@]2(N1)[C@@H]4O)[C@]3(O)CO [TTX, Tetrodotoxin]
changes in the QRS interval (female rabbit hearts): no or minimal changes | decrease of transmural dispersion (female rabbit hearts): 47 ± 11 ms | effect on MAPD90 (female rabbit hearts): no effects | effect on transmural dispersion of MAPD90 (female rabbit hearts): no effects | shortening of MAPD (female rabbit hearts): 33 ± 8 ms

Cc1cccc(CCN2CCC(C(=O)c3ccc(NS(C)(=O)=O)cc3)CC2)n1 [E-4031, N-(4-[(1-[2-(6-methyl-2-pyridyl)ethyl]-4-piperidylcarbonyl]phenyl)methanesulfonamidedihydrochloride dehydrate]
epicardial MAPD90 with drug (female rabbit hearts): 254 ± 6 ms | increase of transmural MAPD dispersion (female rabbit hearts): 74 ± 7 ms | prolongation of duration of epicardial MAP (MAPD90) (female rabbit hearts): 75 ± 5 ms | transmural MAPD dispersion with drug (female rabbit hearts): 90 ± 10 ms

COc1ccccc1OCC(O)CN1CCN(CC(=O)Nc2c(C)cccc2C)CC1 (stereo not shown) [ranolazine, N-(2,6-dimethylphenyl)-4-[2-hydroxy-3-(2-methoxyphenoxy)propyl]-1-piperazineacetamide]
effect on IKI [1]: no effect | changes in the QRS interval (female rabbit hearts): no or minimal changes | effect on spontaneous and pause-triggered episodes of TdP induced by 60 nM E-4031 (female rabbit hearts; ranolazine 10 μM): abolished | decrease of transmural dispersion (female rabbit hearts; [7]): 40 ± 9 ms | shortening of MAPD90 (female rabbit hearts; [7]): 19 ± 5 ms | effect on transmural dispersion of MAPD90 (female rabbit hearts; ranolazine 5-30 μM alone): without increasing | prolongation of epicardial MAPD90 (female rabbit hearts; ranolazine 5-30 μM alone, concentration-dependent, n=7, p<0.01): 32±4% | effect on IKr (IKr): inhibit | inhibition of the slow component of the delayed rectifier K+ current (IKr) [2]: ~17% | increase in monophasic APD (MAPD) or QT interval ([3]; at therapeutic concentrations): 2 to 6 ms | pro-arrhythmic activity [3]: not associated with pro-arrhythmic activity | occurrence of TdP (anesthetized rabbits; RAN at 25 μM, P<0.005 vs vehicle control): 0/6 | QRS interval (anesthetized rabbits; RAN at 25 μM, from 32±1 ms, n=5, P>0.05): 33 ± 1 ms | PR interval (anesthetized rabbits; RAN at 25 μM, from 79±2 ms, n=5, P>0.05): 77 ± 1 ms | heart rate (anesthetized rabbits; RAN at 25 μM, from 186±9 bpm, n=5, P>0.05): 204±10 bpm | ED50 for suppression of clofilium-induced MAPD90 prolongation (anesthetized rabbits; [8]): 15 µM | ED50 for suppression of clofilium-induced QTc prolongation (anesthetized rabbits; [8]): 10 µM | ED50 for suppression of clofilium-induced TdP (anesthetized rabbits; [8]): 10 µM | effect on Ito [4]: no effect | effect on MAPD90 ([5]; in the absence of ATX-II): increased | effect on MAPD ([5]; in the presence of 2 nM ATX-II): shortened | character of block of IHERG [6]: reversible and voltage-dependent, but frequency-independent | time constant for development of block of IHERG ([6]; 10 μM): 76.6 ± 1.6 ms | time constant for development of block of IHERG ([6]; 30 μM): 35.8 ± 2.4 ms | time constant for development of block of IHERG ([6]; 100 μM): 19.4 ± 1.7 ms
